In patent US20030220402A1, “Cancer remedy comprising anthranilic acid derivatives as active ingredients” (priority 2000, published 2003):

System: L929 cells
Assay: Measurement of cytotoxicity using mouse tumorous cells L929 (Neutral Red assay)
Type: cell-based
Conditions: 3 days culture, concentration manifesting 50% cytotoxicity
Description: Measurement of Cytotoxicity Using Mouse Tumorous Cells L929
The cytotoxic activity against tumorous cells was measured according to a Neutral Red assay method [the method described in Journal of Tissue Culture Methodology, vol. 9, p. […] 24, p. […] Namely, 100 μL each of L929 cells (5×10^4 cells/mL, 10% FCS/RPM1) was added to a 96-well ELISA plate, and the cells were cultured overnight. The test compound at each measuring concentration was dissolved in a DMSO solution and added, and culturing was further continued for 3 days. To the cultured cells, was then added 2.0 μL of Neutral Red so as to provide the final concentration of 0.01%. Incubation was conducted at 37° C. for 1 hour, and the cell culture supernatant was removed. The resultant cultured cells were washed with […] of PBS twice to remove the excessive Neutral Red. To the washed cells, was then added 100 μL of a 50% ethanol-1% aqueous acetic acid. The dye incorporated in the cells was extracted, and the amount of the dye was determined by measuring the absorbance at 490 nm. The case where a drug was not added was taken as 100%, and the cytotoxicity was determined at the concentrations of the respective test compounds. […] The measurements under the same conditions in two sets each were made, and the data were, obtained from the average values.

Row | Structure (SMILES) | LD50 [µM]
1 | O=C(Cc1ccc(Oc2ccc(OC3CCCCC3)cc2)cc1)Nc1ccccc1C(=O)O [compound 288, 2-(4-(4-cyclohexyloxyphenoxy)phenylacetamido)benzoic acid] | 0.20
2 | O=C(Cc1ccc(Oc2ccc(OCc3ccccc3)cc2)cc1)Nc1ccccc1C(=O)O [Compound No. 316, 2-(4-(4-benzyloxyphenoxy)phenylacetamido)benzoic acid] | 0.60
3 | COC(=O)c1ccccc1NC(=O)Cc1ccc(Oc2ccc(O)cc2)cc1 [Compound No. 296, methyl 2-(4-(4-hydroxyphenoxy)phenylacetamido)benzoate] | >5
4 | O=C(Cc1ccc(Oc2ccc3ccccc3c2)cc1)Nc1ccccc1C(=O)O [Compound No. 59, 2-(4-(2-naphthyloxy)phenylacetamido)benzoic acid] | 1.6
